We go through 16 molecules from article PMC6522510 (Nature Communications, 2019).

Read-outs that look alike come from different tables or passages of the source.

Test systems include ML-2; U937; MOLM-13; CHRF288-11; M07e; MV4-11; CMS; CMK.
What all share (design): species or system AML cell lines (8); Primary HTS, single concentration about 10 uM, Cell Titer Glo viability; log10 luminescence, per cent inhibition relative to cycloheximide control
Common to all, as to conditions: 72 h, relative to cycloheximide control, log10 luminescence, inhibitor

On to `Clc1ccc(-c2nc3sccn3c2/C=N/OCc2ccc(Cl)c(Cl)c2)cc1` [SJ000546521-1, CITCO], for which the ML-2 %inh in the assay with ML-2 is recorded as -0.03995%. The U937 %inh with U937 is on record as -0.9685%. Besides, in the assay on MOLM-13, the MOLM-13 %inh is -1.049%. Besides, the CHRF288-11 %inh with CHRF288-11 is 8.549%. The M07e %inh with M07e was 0.1835%. Further, the MV4-11 %inh with MV4-11 is reported as 0.01601%. Besides, in the assay with CMS, the CMS %inh was 0.2267%. For the same molecule, the CMK %inh in the assay on CMK is given as -3.05%.
As to `Cn1c(=O)c(Cc2ccccc2F)cc2cnc(NC3CCOCC3)nc21` [SJ000580958-1], the ML-2 %inh in the assay with ML-2 is on record as 0.5571%. Moreover, in the assay with U937, the U937 %inh was found to be 8.088%. The MOLM-13 %inh in the assay on MOLM-13 was 5.832%. Moreover, in the assay with CHRF288-11, the CHRF288-11 %inh is 0.1529%. In the assay with M07e, the M07e %inh came out at 0.7689%. Also, in the assay on MV4-11, the MV4-11 %inh amounted to 6.415%. The CMS %inh in the assay on CMS is reported as 0.1397%. Besides, the CMK %inh with CMK is 5.964%.
Take `Cn1cc(C2=C(c3ccccc3C(F)(F)F)C(=O)NC2=O)c2ccccc21` [SJ000580979-1]: the ML-2 %inh in the assay with ML-2 is reported as 0.8133%. Also, the U937 %inh with U937 is recorded as 1.904%. In addition, the MOLM-13 %inh with MOLM-13 was 4.778%. For the same molecule, the CHRF288-11 %inh in the assay with CHRF288-11 is 19.74%. Moreover, the M07e %inh with M07e is -0.07648%. Also, the MV4-11 %inh in the assay on MV4-11 came out at 10.38%. The CMS %inh with CMS is recorded as 5.043%. Also, the CMK %inh in the assay with CMK worked out at 21.16%.
In the case of `O=C1NC(=NCCc2ccc(Br)cc2)S/C1=C\c1ccc2ncccc2c1` [SJ000580974-1], in the assay on ML-2, the ML-2 %inh is recorded as -0.9884%. Also, the U937 %inh with U937 was -2.102%. Besides, in the assay with MOLM-13, the MOLM-13 %inh is reported as 0.9588%. Also, the CHRF288-11 %inh in the assay with CHRF288-11 is reported as -1.536%. In addition, in the assay with M07e, the M07e %inh is recorded as -0.6831%. Besides, in the assay with MV4-11, the MV4-11 %inh worked out at 2.317%. For the same molecule, in the assay with CMS, the CMS %inh is given as -2.579%. The CMK %inh with CMK worked out at 0.3303%.
As to `Nc1nc(-c2ccccn2)c(-c2ccc3ncccc3n2)s1` [SJ000573278-1, FAMP/256/57/4], the ML-2 %inh in the assay on ML-2 turned out to be 2.846%. Also, in the assay with U937, the U937 %inh was -0.9094%. The MOLM-13 %inh with MOLM-13 is listed as 2.605%. Besides, the CHRF288-11 %inh with CHRF288-11 was 2.264%. Besides, the M07e %inh in the assay on M07e is reported as 0.9531%. Also, in the assay with MV4-11, the MV4-11 %inh is -2.996%. Also, the CMS %inh in the assay with CMS worked out at 0.3275%. Further, the CMK %inh in the assay on CMK came to 2.499%.
Consider `CCCN(CCS(C)(=O)=O)Cc1ccc(-c2ccc3ncnc(Nc4ccc(OCc5cccc(F)c5)c(Cl)c4)c3c2)o1` [SJ000573207-1, U16419/108/1], for which the ML-2 %inh in the assay on ML-2 worked out at 1.001%. The U937 %inh with U937 came out at 4.462%. In addition, the MOLM-13 %inh in the assay on MOLM-13 amounted to 2.051%. In addition, the CHRF288-11 %inh with CHRF288-11 was 4.347%. Further, the M07e %inh with M07e is recorded as -0.08315%. Further, the MV4-11 %inh in the assay with MV4-11 is given as 1.09%. Also, the CMS %inh in the assay on CMS is -1.914%. In the assay with CMK, the CMK %inh stood at 1.892%.
On to `Cc1nc2sc3c(N)ncnc3c2c(C)c1C` [SJ000581052-1], for which, in the assay with ML-2, the ML-2 %inh came out at 0.8474%. Besides, the U937 %inh in the assay with U937 is reported as 1.552%. For the same molecule, the MOLM-13 %inh in the assay on MOLM-13 came out at 0.3678%. For the same molecule, the CHRF288-11 %inh in the assay on CHRF288-11 worked out at 5.518%. Also, in the assay with M07e, the M07e %inh amounted to 0.5709%. Moreover, the MV4-11 %inh with MV4-11 is -2.527%. Moreover, the CMS %inh in the assay with CMS was found to be 0.007081%. For the same molecule, in the assay on CMK, the CMK %inh is -9.059%.
On to `COc1cc2c(cc1Nc1nc(N3CCc4ccccc43)c3cc[nH]c3n1)N(C(=O)CN(C)C)CC2` [SJ000573043-1, N7699-100-1], for which the ML-2 %inh with ML-2 stood at 54.96%. Also, in the assay with U937, the U937 %inh worked out at 74.23%. The MOLM-13 %inh with MOLM-13 is 9.876%. Also, in the assay on CHRF288-11, the CHRF288-11 %inh is 128.5%. The M07e %inh in the assay on M07e worked out at 130.8%. In the assay on MV4-11, the MV4-11 %inh is recorded as 75.42%. Moreover, the CMS %inh with CMS is given as 96.79%. In the assay with CMK, the CMK %inh was found to be 123.9%.
For the molecule `NC(=O)c1sc(-n2cnc3cc(C(F)(F)F)ccc32)cc1OCc1ccccc1Br` [SJ000573185-1, U19121/197/1], the ML-2 %inh in the assay with ML-2 is on record as -0.4297%. Further, the U937 %inh in the assay with U937 is on record as -0.2413%. Further, in the assay on MOLM-13, the MOLM-13 %inh was determined as 0.4978%. Besides, in the assay with CHRF288-11, the CHRF288-11 %inh is reported as 0.2512%. For the same molecule, in the assay on M07e, the M07e %inh was -2.426%. In the assay with MV4-11, the MV4-11 %inh was found to be 1.859%. The CMS %inh with CMS was -1.069%. Moreover, the CMK %inh in the assay with CMK is recorded as 3.577%.
`COc1ccccc1CN=C1NC(=O)/C(=C/c2ccc3ncccc3c2)S1` [SJ000581141-1]: the ML-2 %inh in the assay on ML-2 is on record as 2.098%. Further, the U937 %inh in the assay with U937 is 8.458%. In the assay on MOLM-13, the MOLM-13 %inh was 11.11%. Besides, the CHRF288-11 %inh in the assay on CHRF288-11 is reported as -2.393%. Besides, the M07e %inh in the assay on M07e is 13.46%. In addition, the MV4-11 %inh with MV4-11 was found to be 3.855%. In the assay with CMS, the CMS %inh is on record as 6.446%. Also, the CMK %inh with CMK is recorded as 34.72%.
Regarding `N#Cc1ccc2c(-c3ccnc(NC4CC4)n3)c(-c3ccc(F)cc3)nn2c1` [SJ000573143-1, U15304/34/1], in the assay with ML-2, the ML-2 %inh is listed as 1.142%. Further, in the assay on U937, the U937 %inh is recorded as 0.4809%. Also, the MOLM-13 %inh in the assay on MOLM-13 was 2.3%. The CHRF288-11 %inh with CHRF288-11 was -0.1104%. The M07e %inh with M07e is 7.135%. The MV4-11 %inh in the assay on MV4-11 is -1.164%. Moreover, in the assay with CMS, the CMS %inh worked out at 2.587%. Besides, the CMK %inh in the assay on CMK is 2.803%.
With `NS(=O)(=O)c1ccc(-c2ccc3c(NC(=O)C4CC4)n[nH]c3c2)cc1` [SJ000573140-1, VB100064-161A1], the ML-2 %inh in the assay on ML-2 was 0.5159%. Also, in the assay with U937, the U937 %inh is -0.5779%. In addition, in the assay on MOLM-13, the MOLM-13 %inh is -3.649%. Also, the CHRF288-11 %inh in the assay with CHRF288-11 is 4.361%. Also, the M07e %inh in the assay with M07e is given as -0.07238%. For the same molecule, the MV4-11 %inh with MV4-11 is given as -0.6023%. Further, the CMS %inh with CMS is -3.489%. In the assay with CMK, the CMK %inh was -4.867%.
Take `NS(=O)(=O)c1cc2c(cc1Cl)NC(C1CC3C=CC1C3)NS2(=O)=O` (centres unmarked) [SJ000287770-4, CYCLOTHIAZIDE]: the ML-2 %inh with ML-2 stood at 0.8137%. Moreover, in the assay on U937, the U937 %inh was 3.095%. For the same molecule, the MOLM-13 %inh in the assay with MOLM-13 is 4.774%. In addition, the CHRF288-11 %inh with CHRF288-11 is given as -0.8826%. Besides, in the assay with M07e, the M07e %inh is reported as -1.741%. For the same molecule, the MV4-11 %inh with MV4-11 worked out at 2.178%. Moreover, in the assay with CMS, the CMS %inh is 2.052%. Also, in the assay on CMK, the CMK %inh is 4.526%.
As to `OC[C@H]1O[C@@H](O[C@@H]2[C@@H](CO)OC(O)(CO)[C@H]2O)[C@H](O)[C@@H](O)[C@H]1O` (mixture of isomers) [SJ000285579-4, LACTULOSE], the ML-2 %inh in the assay on ML-2 (ML-2 %inh, 10 µM) is -0.9858%. Moreover, in the assay with U937 (U937 %inh, 10 µM), the U937 %inh came to 1.171%. Besides, the MOLM-13 %inh with MOLM-13 (MOLM-13 %inh, 10 µM) is on record as 5.87%. Moreover, in the assay with CHRF288-11 (CHRF288-11 %inh, 10 µM), the CHRF288-11 %inh worked out at 2.769%. In addition, in the assay with M07e (M07e %inh, 10 µM), the M07e %inh was determined as 8.809%. Further, the MV4-11 %inh with MV4-11 (MV4-11 %inh, 10 µM) is given as 2.037%. Further, the CMS %inh in the assay with CMS (CMS %inh, 10 µM) was -0.8505%. In addition, the CMK %inh with CMK (CMK %inh, 10 µM) was found to be 0.6173%.
For `O=C(Nc1n[nH]c2cc(-c3cc(F)ccc3F)ccc12)C1CC1` [SJ000573189-1, VB100064-133A2], the ML-2 %inh in the assay with ML-2 is 4.109%. Besides, in the assay on U937, the U937 %inh came out at 8.276%. The MOLM-13 %inh with MOLM-13 came out at 3.339%. Moreover, in the assay on CHRF288-11, the CHRF288-11 %inh was 23.56%. Besides, in the assay on M07e, the M07e %inh was 13.96%. Further, the MV4-11 %inh with MV4-11 came to 1.045%. In addition, the CMS %inh in the assay with CMS worked out at 3.394%. For the same molecule, the CMK %inh in the assay with CMK is 46.32%.
On to `N#CC[C@H](C1CCCC1)n1cc(-c2ncnc3[nH]ccc23)cn1` [SJ000574296-1, RUXOLITINIB | INCB-18424 | INCB-018424 | NCB018424 | INC-424 | INCB-424 | RUXOLITINIB | INCB-18424 | INCB-018424 | NCB018424 | INC-424 | INCB-424 | | RUXOLITINIB (INCB018424) | S-RUXOLITINIB (INCB018424)], for which the ML-2 %inh in the assay on ML-2 is on record as 4.441%. The U937 %inh with U937 amounted to 33.85%. The MOLM-13 %inh in the assay with MOLM-13 was 27.41%. Also, the CHRF288-11 %inh with CHRF288-11 amounted to 79.68%. In addition, in the assay on M07e, the M07e %inh came to 44.64%. Moreover, in the assay with MV4-11, the MV4-11 %inh was 11.92%. For the same molecule, the CMS %inh in the assay with CMS came out at 86.42%. Moreover, in the assay on CMK, the CMK %inh is given as 85.02%.
